From patent publication US20230414626A1, “INDUCTION OF FERROPTOSIS FOR CANCER THERAPY” (Memorial Sloan Kettering Cancer Center, priority 2020, published 2023)

System: PTEN-defective PC-3 prostate cancer xenograft tumors
Experiment: In vivo xenograft mouse model, PC-3
Conditions: PC-3 xenograft, nu/nu mice; IKE 50 mg/kg daily i.p.; CCI-779 2 mg/kg daily i.p.
Protocol: FIG. 6 A-F. Combination of mTORC1 inhibition with ferroptosis induction leads to tumor regression in vivo. (A) CRISPR/Cas9-mediated, Dox-induced GPX4 knockout (GPX4-iKO) in BT474 cells, monitored by western blot. (B) Images of resected tumors from mice xenografted with GPX4-iKO BT474 cells. Groups of mice were treated with CCI-779 and/or Dox as indicated (n=6 per group). See Methods for detail. (C) Representative haematoxylin and eosin (H&E) and immunostaining images of GPX4, Ki67, PTGS2 and pS235/236 S6, all counterstained with haematoxylin (blue), are shown from sections of xenografted tumors. Scale bar, 50 μm. (D) Growth curves of BT474 tumors of each group. Data are plotted as mean±s.d., n=6, on the linear scale for actual tumor size (upper panel) or the log 2 scale for the fold change of tumors (bottom panel). (E) Growth curves of PC-3 tumors of each group (n=6), on the linear scale for actual tumor size (upper panel) or the log 2 scale for the fold change of tumor size (bottom panel). […]
FIG. 13 A-E. Combination of mTORC1 inhibition with ferroptosis induction leads to tumor regression. […] (B) BT474 tumor volume was measured every day for each mouse. […] (E) PC-3 tumor volume was measured every day for each mouse. […]
For PC-3 tumor models, male athymic nu/nu mice aged 5 to 6 weeks were injected in the right flank with 5×10^6 PC-3 cells. Tumors were measured with callipers daily. […]

CC(C)Oc1ccc(C(=O)Cn2ccnc2)cc1-n1c(CN2CCN(C(=O)COc3ccc(Cl)cc3)CC2)nc2ccccc2c1=O [IKE, imidazole ketone erastin]
tumor growth: no effects on tumor growth
